pIC50: −log10 of the molar value. Numbered stars: 1 amine (or outer) side, 2 acyl side, 3 side chain; on linkers, the order of the positions; unused ones are H or OH. Bridge positions count the residues as written; N and C are the ends. Square brackets hold non-standard residues; d marks the D form. Peptide text beside a SMILES is read from it. * marks the point of attachment. hPhe(3,5-F2-4-CF3) = N[C@@H](CCc1cc(F)c(C(F)(F)F)c(F)c1)C(=O)O; hPhe(3-Cl-4-CF3) = N[C@@H](CCc1ccc(C(F)(F)F)c(Cl)c1)C(=O)O; NMePhe(4-CF3) = CN[C@@H](Cc1ccc(C(F)(F)F)cc1)C(=O)O; 3Oxa8azabicyclo(3.2.1)octane = C1CC2COCC1N2*; NMePhe(4-Me) = CN[C@@H](Cc1ccc(C)cc1)C(=O)O; NMedβ3hAla = C[C@H](CC(=O)[*:2])N(C)[*:1]; NMeGly(cPent) = CN[C@H](C(=O)O)C1CCCC1; NMeCha = CN[C@@H](CC1CCCCC1)C(=O)O; Hyp = O=C(O)[C@@H]1C[C@@H](O)CN1; NMeAhp(2) = CCCCC[C@H](NC)C(=O)O; NMeI = CC[C@H](C)[C@H](NC)C(=O)O; NMeD = CN[C@@H](CC(=O)O)C(=O)O; NMeL = CN[C@@H](CC(C)C)C(=O)O; NMeV = CN[C@H](C(=O)O)C(C)C; Morpholide = C1CN(*)CCO1; NMeA = CN[C@@H](C)C(=O)O; Ac5c = NC1(C(=O)O)CCCC1; Aze = O=C(O)[C@@H]1CCN1; Sar = CNCC(=O)O
Experiments:
[1] = test system: Human pancreatic cancer cell line AsPC-1 (G12D mutation Kras); test: AsPC-1 cell growth inhibition (AsPC-1 CGI); format: cell-based; conditions: read-out: AsPC-1 cell growth inhibition, 50% growth inhibitory concentration (IC50 value); 96 hours, CellTiter-Glo, values classified in ranges
[2] = target: protein-protein interaction between Kras and SOS1 (biotin-tagged human Kras loaded with GDP, His-tagged human SOS1) (Homo sapiens (Human), UniProt P01116, G12D); test: Protein-protein interaction inhibition between Kras and SOS1 (KrasG12D-SOS PPI) using AlphaScreen; format: biochemical; conditions: AlphaScreen; biotin-tagged human Kras loaded with GDP, His-tagged human SOS1; read-out: KRAS G12D-SOS PPI IC50;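 further: kras produced in E. coli, Ni-coupled donor beads and streptavidin acceptor beads, excitation 680 nm with emission detected at 520–620 nm via singlet oxygen transfer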

| Structure (SMILES) | pIC50 [1] | pIC50 [2] |
| --- | --- | --- |
| CCO[C@@H]1C[C@H]2C(=O)NC3(CCCC3)C(=O)N(C)[C@@H](C3CCCC3)C(=O)N(C)[C@H](C)CC(=O)N(C)[C@@H](CC(C)C)C(=O)N[C@@H]([C@@H](C)CC)C(=O)N(C)[C@@H](C)C(=O)N3CC[C@H]3C(=O)N(C)[C@@H](Cc3ccc(C(F)(F)F)cc3)C(=O)N(C)CC(=O)N[C@@H](CCc3ccc(C(F)(F)F)c(Cl)c3)C(=O)N2C1 [Compound 640] (cyclo([Ac5c][NMeGly(cPent)][NMedβ3hAla][NMeL]I[NMeA][Aze][NMePhe(4-CF3)][Sar][hPhe(3-Cl-4-CF3)][Hyp](Et))) | ≥ 7.70 | 9.07 |
| CC[C@H](C)[C@@H]1NC(=O)[C@H](CC(C)C)N(C)C(=O)C[C@@H](C)N(C)C(=O)[C@H](C2CCCC2)N(C)C(=O)C2(CCCC2)NC(=O)[C@@H]2CCCN2C(=O)[C@H](CCc2ccc(C(F)(F)F)c(Cl)c2)NC(=O)CN(C)C(=O)[C@H](Cc2ccc(C(F)(F)F)cc2)N(C)C(=O)[C@@H]2CCN2C(=O)[C@H](C)N(C)C1=O [Compound 587] (cyclo([Ac5c][NMeGly(cPent)][NMedβ3hAla][NMeL]I[NMeA][Aze][NMePhe(4-CF3)][Sar][hPhe(3-Cl-4-CF3)]P)) | ≥ 7.70 | 8.92 |
| CC[C@H](C)[C@@H]1NC(=O)[C@H](CC(C)C)N(C)C(=O)C[C@@H](C(=O)N2CCOCC2)N(C)C(=O)[C@H](C2CCCC2)N(C)C(=O)C2(CCCC2)NC(=O)[C@@H]2CCCN2C(=O)[C@H](CCc2cc(F)c(C(F)(F)F)c(F)c2)NC(=O)CN(C)C(=O)[C@H](CC2CCCCC2)N(C)C(=O)[C@@H]2CCN2C(=O)[C@H](C)N(C)C1=O [Compound 1308] ([NMeL]I[NMeA][Aze][NMeCha][Sar][hPhe(3,5-F2-4-CF3)]P[Ac5c][NMeGly(cPent)][NMeD]-Morpholide; lactam N-11) | ≥ 7.70 | 9.19 |
| CC[C@H](C)[C@@H]1NC(=O)[C@H](CC(C)C)N(C)C(=O)C[C@@H](C(=O)N2C3CCC2COC3)N(C)C(=O)[C@H](C2CCCC2)N(C)C(=O)C2(CCCC2)NC(=O)[C@@H]2CCCN2C(=O)[C@H](CCc2ccc(C(F)(F)F)c(Cl)c2)NC(=O)CN(C)C(=O)[C@H](C2CCCC2)N(C)C(=O)[C@@H]2CCN2C(=O)[C@H](C)N(C)C1=O [Compound 721] ([NMeL]I[NMeA][Aze][NMeGly(cPent)][Sar][hPhe(3-Cl-4-CF3)]P[Ac5c][NMeGly(cPent)][NMeD]-{3Oxa8azabicyclo(3.2.1)octane}; lactam N-11) | ≥ 7.70 | 8.82 |
| CC[C@H](C)[C@@H]1NC(=O)[C@H](CC(C)C)N(C)C(=O)C[C@@H](C(=O)N2CCOCC2)NC(=O)[C@H](C(C)C)N(C)C(=O)C2(CCCC2)NC(=O)[C@@H]2CCCN2C(=O)[C@H](CCc2ccc(C(F)(F)F)c(Cl)c2)NC(=O)CN(C)C(=O)[C@H](CC2CCCCC2)N(C)C(=O)[C@@H]2CCN2C(=O)[C@H](C)N(C)C1=O [Compound 1200] ([NMeL]I[NMeA][Aze][NMeCha][Sar][hPhe(3-Cl-4-CF3)]P[Ac5c][NMeV]D-Morpholide; lactam N-11) | < 6.30 | 7.35 |
| CCCCC[C@H]1C(=O)N[C@@H]([C@@H](C)CC)C(=O)N(C)[C@@H](C)C(=O)N2CC[C@H]2C(=O)N(C)[C@@H](Cc2ccc(C)cc2)C(=O)N(C)CC(=O)N[C@@H](CCc2ccc(C(F)(F)F)c(Cl)c2)C(=O)N2CCC[C@H]2C(=O)NC2(CCCC2)C(=O)N(C)[C@@H]([C@@H](C)CC)C(=O)N(C)[C@H](C(=O)N(C)C)CC(=O)N1C [Compound 896] ([NMeAhp(2)]I[NMeA][Aze][NMePhe(4-Me)][Sar][hPhe(3-Cl-4-CF3)]P[Ac5c][NMeI][NMeD]-NMe2; lactam N-11) | ≥ 7.70 | 8.96 |
| CC[C@H](C)[C@@H]1NC(=O)[C@H](CC(C)C)N(C)C(=O)C[C@@H](C(=O)N2CCCCC2)N(C)C(=O)[C@H](CC(C)C)NC(=O)C(C)(C)N(C)C(=O)[C@@H]2CCCCCC[C@@H](C(=O)N(C)CC(=O)N[C@@H](Cc3cccc(I)c3)C(=O)N2)N(C)C(=O)CN(C)C(=O)CN(C)C1=O [Compound 1411, (1S,7S,10S,14S,17S,26S,32S)-32-[(3-iodophenyl)methyl]-7,14-diisobutyl-3,4,4,9,13,19,22,25,28-nonamethyl-17-[(1S)-1-methylpropyl]-10-(piperidine-1-carbonyl)-3,6,9,13,16,19,22,25,28,31,34-undecazabicyclo[24.8.6]tetracontane-2,5,8,12,15,18,21,24,27,30,33-undecone] | < 6.30 | 7.09 |
| CCO[C@@H]1C[C@H]2C(=O)NC3(CCCC3)C(=O)N(C)[C@@H](C3CCCC3)C(=O)N(C)[C@H](C(=O)N3CCOCC3)CC(=O)N(C)[C@@H](CC(C)C)C(=O)N[C@@H]([C@@H](C)CC)C(=O)N(C)[C@@H](C)C(=O)N3CC[C@H]3C(=O)N(C)[C@@H](CC3CCCCC3)C(=O)N(C)CC(=O)N[C@@H](CCc3ccc(C(F)(F)F)c(Cl)c3)C(=O)N2C1 [Compound 1259] ([NMeL]I[NMeA][Aze][NMeCha][Sar][hPhe(3-Cl-4-CF3)][Hyp](Et)[Ac5c][NMeGly(cPent)][NMeD]-Morpholide; lactam N-11) | ≥ 7.70 | 9.31 |

— patent US20240148821A1, “PHARMACEUTICAL USE OF CYCLIC PEPTIDE COMPOUND” (CHUGAI SEIYAKU KABUSHIKI KAISHA, priority 2021, published 2024)
